The record followed here is patent US20260193271A1, “PAN-KRAS INHIBITOR COMPOUND” (ADLAI NORTYE BIOPHARMA CO., LTD., priority 2022, published 2026).

As usually defined, the IC50 is the concentration needed to halve the response being measured.

The subject of this assay is AsPC-1 (G12D). Briefly: In vitro cell proliferation inhibition test (CellTiter-Glo), AsPC-1. It counts as cell-based. The settings on record: AsPC-1 pancreas cell line, KRAS (p.G12D), 72 h co-incubation. The text has this: Test Example 1: In Vitro Cell Proliferation Inhibition Test
Due to the diversity of RAS mutations and in order to evaluate the activity of compounds in different RAS mutation cell lines, we selected KRAS^WT, KRAS^G12C, KRAS^G12D, KRAS^G12V and BRAF mutation cell lines (see the table below) for in vitro activity evaluation and screening of compounds.
Protocol: CellTiter-Glo® Cell Luminescent Viability Assay (Promega)
According to the doubling time of different cell lines, different numbers of cells (1000-5000 cells/well) were seeded in 96-well plates containing 180 μl of corresponding culture medium and cultured overnight in a cell culture incubator at 37° C. with 5% CO2. On the second day, the test compound was pre-diluted 3-fold with culture medium, with the highest concentration being 100 μM, for a total of 10 concentration gradients; then 20 μl of culture medium containing different concentrations of the compound was added to the cells in the 96-well plate to ensure that the final concentration of the compound was up to 10 μM, with 10 concentration gradients of 3-fold dilution. After the cells and compounds were co-incubated for 72 h, the 96-well plate was removed from the incubator and equilibrated at room temperature for 30 min. Then, 25 μl of CellTiter-Glo® Reagent was added to each well and mixed thoroughly. The mixture was incubated at room temperature for 10 min, and then 100 μl of the sample was transferred to a white 96-well plate (OptiPlate™-96, PerkinElmer). The […] signal value was read using a multi-function microplate reader (SpectraMax® i3x, Molecular devices). The signal values were then standardized, and the curve was fitted using a four-parameter regression equation to calculate the half maximal inhibitory concentration (IC50) of the compound on the cell line.
Background: In ATP-based viability assays light output follows the ATP content of the culture.

For `CCn1c(-c2cc(-c3ccc(CN4CCOCC4)cc3)cnc2C(C)OC)c2c3cc(ccc31)-c1csc(n1)CC(NC(=O)C1C(C)C1C)C(=O)N1CCCC(N1)C(=O)OCC(C)(C)C2` [Compound 1′, (1r,2R,3S)-N-((6^3S,4S,Z)-1^1-ethyl-1^2-(2-((S)-1-methoxyethyl)-5-(4-(morpholinomethyl)phenyl)pyridin-3-yl)-10,10-dimethyl-5,7-dioxo-6^1,6^2,6^3,6^4,6^5,6^6-hexahydro-1^1H-8-oxa-2(4,2)-thiazola-1(5,3)-indola-6(1,3)-pyridazinacycloundecaphane-4-yl)-2,3-dimethylcyclopropane-1-carboxamide], the IC50 came to 4770 nM.

Take `CCn1c(-c2cc(-c3ccc4c(c3)CCN(C)C4)cnc2C(C)OC)c2c3cc(ccc31)-c1csc(n1)CC(NC(=O)C1C(C)C1C)C(=O)N1CCCC(N1)C(=O)OCC(C)(C)C2` [Compound 3′, (1r,2R,3S)-N-((6^3S,4S,Z)-1^1-ethyl-1^2-(2-((S)-1-methoxyethyl)-5-(2-methyl-1,2,3,4-tetrahydroisoquinolin-6-yl)pyridin-3-yl)-10,10-dimethyl-5,7-dioxo-6^1,6^2,6^3,6^4,6^5,6^6-hexahydro-1^1H-8-oxa-2(4,2)-thiazola-1(5,3)-indola-6(1,3)-pyridazinacycloundecaphane-4-yl)-2,3-dimethylcyclopropane-1-carboxamide]: the IC50 turned out to be 1230 nM. The result for `CCn1c(-c2cc(-c3cccc(CN(C)C)c3)cnc2[C@H](C)OC)c2c3cc(ccc31)-c1csc(n1)C[C@H](NC(=O)[C@H]1[C@H](C)[C@@H]1C)C(=O)N1CCC[C@H](N1)C(=O)OCC(C)(C)C2` [Compound 4′, (1r,2R,3S)-N-((6^3S,4S,Z)-1^2-(5-(3-((dimethylamino)methyl)phenyl)-2-((S)-1-methoxyethyl)pyridin-3-yl)-1^1-ethyl-10,10-dimethyl-5,7-dioxo-6^1,6^2,6^3,6^4,6^5,6^6-hexahydro-1^1H-8-oxa-2(4,2)-thiazola-1(5,3)-indola-6(1,3)-pyridazinacycloundecaphane-4-yl)-2,3-dimethylcyclopropane-1-carboxamide] reads 646 nM; that for `CCn1c(-c2cc(-c3ccc(CN4CCOCC4)nc3)cnc2C(C)OC)c2c3cc(ccc31)-c1csc(n1)CC(NC(=O)C1CC1C)C(=O)N1CCCC(N1)C(=O)OCC(C)(C)C2` [Compound 5′, (1S,2S)-N-((6^3S,4S,Z)-1^1-ethyl-1^2-(6-((S)-1-methoxyethyl)-6′-(morpholinomethyl)-[3,3′-bipyridin]-5-yl)-10,10-dimethyl-5,7-dioxo-6^1,6^2,6^3,6^4,6^5,6^6-hexahydro-1^1H-8-oxa-2(4,2)-thiazola-1(5,3)-indola-6(1,3)-pyridazinacycloundecaphane-4-yl)-2-methylcyclopropane-1-carboxamide], 99 nM; that for `CCn1c(-c2cc(-c3ccc(CN4CCC(F)C4)cc3)cnc2C(C)OC)c2c3cc(ccc31)-c1csc(n1)CC(NC(=O)C1CC1C)C(=O)N1CCCC(N1)C(=O)OCC(C)(C)C2` [Compound 6′, (1S,2S)-N-((6^3S,4S,Z)-1^1-ethyl-1^2-(5-(4-(((R)-3-fluoropyrrolidin-1-yl)methyl)phenyl)-2-((S)-1-methoxyethyl)pyridin-3-yl)-10,10-dimethyl-5,7-dioxo-6^1,6^2,6^3,6^4,6^5,6^6-hexahydro-1^1H-8-oxa-2(4,2)-thiazola-1(5,3)-indola-6(1,3)-pyridazinacycloundecaphane-4-yl)-2-methylcyclopropane-1-carboxamide], 1460 nM.

With `CCn1c(-c2cc(-c3ccc(CN4CCC(F)(F)CC4)cc3)cnc2C(C)OC)c2c3cc(ccc31)-c1csc(n1)CC(NC(=O)C1CC1C)C(=O)N1CCCC(N1)C(=O)OCC(C)(C)C2` [Compound 7′, (1S,2S)-N-((6^3S,4S,Z)-1^2-(5-(4-((4,4-difluoropiperidin-1-yl)methyl)phenyl)-2-((S)-1-methoxyethyl)pyridin-3-yl)-1^1-ethyl-10,10-dimethyl-5,7-dioxo-6^1,6^2,6^3,6^4,6^5,6^6-hexahydro-1^1H-8-oxa-2(4,2)-thiazola-1(5,3)-indola-6(1,3)-pyridazinacycloundecaphane-4-yl)-2-methylcyclopropane-1-carboxamide], the IC50 was greater than 10000 nM. On to `CCn1c(-c2cc(-c3ccc(CN4CCN(C)CC4)cc3)cnc2[C@H](C)OC)c2c3cc(ccc31)-c1csc(n1)C[C@H](NC(=O)[C@H]1C[C@@H]1C)C(=O)N1CCC[C@H](N1)C(=O)OCC(C)(C)C2` [Compound 8′, (1S,2S)-N-((6^3S,4S,Z)-1^1-ethyl-1^2-(2-((S)-1-methoxyethyl)-5-(4-((4-methylpiperazin-1-yl)methyl)phenyl)pyridin-3-yl)-10,10-dimethyl-5,7-dioxo-6^1,6^2,6^3,6^4,6^5,6^6-hexahydro-1^1H-8-oxa-2(4,2)-thiazola-1(5,3)-indola-6(1,3)-pyridazinacycloundecaphane-4-yl)-2-methylcyclopropane-1-carboxamide], for which the IC50 came to 236 nM. As for `CCn1c(-c2cc(-c3cccc(CN4CCOCC4)c3)cnc2C(C)OC)c2c3cc(ccc31)-c1csc(n1)CC(NC(=O)C1CC1C)C(=O)N1CCCC(N1)C(=O)OCC(C)(C)C2` [Compound 9′, (1S,2S)-N-((6^3S,4S,Z)-1^1-ethyl-1^2-(2-((S)-1-methoxyethyl)-5-(3-(morpholinomethyl)phenyl)pyridin-3-yl)-10,10-dimethyl-5,7-dioxo-6^1,6^2,6^3,6^4,6^5,6^6-hexahydro-1^1H-8-oxa-2(4,2)-thiazola-1(5,3)-indola-6(1,3)-pyridazinacycloundecaphane-4-yl)-2-methylcyclopropane-1-carboxamide], the IC50 was determined as 836 nM. Turning to `CCn1c(-c2cc(-c3ccc4c(c3)CN(C)CC4)cnc2C(C)OC)c2c3cc(ccc31)-c1csc(n1)CC(NC(=O)C1CC1C)C(=O)N1CCCC(N1)C(=O)OCC(C)(C)C2` [Compound 10′, (1S,2S)-N-((6^3S,4S,Z)-1^1-ethyl-1^2-(2-((S)-1-methoxyethyl)-5-(2-methyl-1,2,3,4-tetrahydroisoquinolin-7-yl)pyridin-3-yl)-10,10-dimethyl-5,7-dioxo-6^1,6^2,6^3,6^4,6^5,6^6-hexahydro-1^1H-8-oxa-2(4,2)-thiazola-1(5,3)-indola-6(1,3)-pyridazinacycloundecaphane-4-yl)-2-methylcyclopropane-1-carboxamide], the IC50 worked out at 1800 nM.

In the case of `CCn1c(-c2cc(-c3nnc(C)n3C)cnc2C(C)OC)c2c3cc(ccc31)-c1csc(n1)CC(NC(=O)C1CC1C)C(=O)N1CCCC(N1)C(=O)OCC(C)(C)C2` [Compound 20′, (1S,2S)-N-((6^3S,4S,Z)-1^2-(5-(4,5-dimethyl-4H-1,2,4-triazol-3-yl)-2-((S)-1-methoxyethyl)pyridin-3-yl)-1^1-ethyl-10,10-dimethyl-5,7-dioxo-6^1,6^2,6^3,6^4,6^5,6^6-hexahydro-1^1H-8-oxa-2(4,2)-thiazola-1(5,3)-indola-6(1,3)-pyridazinacycloundecaphane-4-yl)-2-methylcyclopropane-1-carboxamide], the IC50 was found to be 87 nM. As for `CCn1c(-c2cc(-c3nc(C)no3)cnc2[C@H](C)OC)c2c3cc(ccc31)-c1csc(n1)C[C@H](NC(=O)[C@H]1C[C@@H]1C)C(=O)N1CCC[C@H](N1)C(=O)OCC(C)(C)C2` [Compound 21′, (1S,2S)-N-((6^3S,4S,Z)-1^1-ethyl-1^2-(2-((S)-1-methoxyethyl)-5-(3-methyl-1,2,4-oxadiazol-5-yl)pyridin-3-yl)-10,10-dimethyl-5,7-dioxo-6^1,6^2,6^3,6^4,6^5,6^6-hexahydro-1^1H-8-oxa-2(4,2)-thiazola-1(5,3)-indola-6(1,3)-pyridazinacycloundecaphane-4-yl)-2-methylcyclopropane-1-carboxamide], the figure is 1770 nM; as for `CCn1c(-c2cc(-c3cc(C4CN(C)CCO4)on3)cnc2C(C)OC)c2c3cc(ccc31)-c1csc(n1)CC(NC(=O)C1C(C)C1C)C(=O)N1CCCC(N1)C(=O)OCC(C)(C)C2` [Compound 26′, (1r,2R,3S)-N-((6^3S,4S,Z)-1^1-ethyl-1^2-(2-((S)-1-methoxyethyl)-5-(5-((R)-4-methylmorpholin-2-yl)isoxazol-3-yl)pyridin-3-yl)-10,10-dimethyl-5,7-dioxo-6^1,6^2,6^3,6^4,6^5,6^6-hexahydro-1^1H-8-oxa-2(4,2)-thiazola-1(5,3)-indola-6(1,3)-pyridazinacycloundecaphane-4-yl)-2,3-dimethylcyclopropane-1-carboxamide], 13 nM. As for `CCn1c(-c2cc(-c3cc(C4COCCN4C)on3)cnc2C(C)OC)c2c3cc(ccc31)-c1csc(n1)CC(NC(=O)C1C(C)C1C)C(=O)N1CCCC(N1)C(=O)OCC(C)(C)C2` [Compound 32′, (1r,2R,3S)-N-((6^3S,4S,Z)-1^1-ethyl-1^2-(2-((S)-1-methoxyethyl)-5-(5-((S)-4-methylmorpholin-3-yl)isoxazol-3-yl)pyridin-3-yl)-10,10-dimethyl-5,7-dioxo-6^1,6^2,6^3,6^4,6^5,6^6-hexahydro-1^1H-8-oxa-2(4,2)-thiazola-1(5,3)-indola-6(1,3)-pyridazinacycloundecaphane-4-yl)-2,3-dimethylcyclopropane-1-carboxamide], the IC50 was determined as 33 nM.
